# Source: US20070112075A1 (Forest Laboratories, Inc., priority 2005, published 2007)
# Structures can show the parent of a compound that is named as a salt.
# Experiments:
# [1] = Stability of escitalopram oxalate in commercial formulations and in contact with bupropion hydrochloride; type: physicochemical
# Description: Preferably, the bupropion and escitalopram in the oral dosage form are physically separated. The inventors have discovered that conventional formulations of escitalopram hydrobromide and escitalopram oxalate unexpectedly degrade under storage conditions. […] The escitalopram and bupropion may be separated by having separate discrete zones of the dosage form (such as different layers) for each component. Alternatively, the dosage form may include a plurality of escitalopram tablets or beads and a plurality of bupropion tablets or beads, where one or both of the escitalopram tablets/beads and bupropion tablets/beads are coated.
# norepinephrine uptake = conditions: cited from earlier work
# monoamine oxidase = conditions: cited from earlier work
Structure (SMILES),time stable in commercial formulations ([1]; commercial formulations),degradation rate compared with commercial formulations ([1]; stored in intimate contact with bupropion hydrochloride),blockade of norepinephrine uptake (norepinephrine uptake),inhibition of monoamine oxidase (monoamine oxidase)
CN(C)CCC[C@@]1(c2ccc(F)cc2)OCc2cc(C#N)ccc21 [escitalopram oxalate],about 12 months,degrades significantly more rapidly,–,–
"CC(NC(C)(C)C)C(=O)c1cccc(Cl)c1 (racemic) [bupropion, (±)-1-(3-chlorophenyl)-2-[(1,1-dimethylethyl)amino]-1-propanone]",–,–,weak blocker,does not inhibit
